This passage reports EC50 results from patent US8633200B2, “Inhibitors of human immunodeficiency virus replication” (priority 2010, dated 2014).

Structures can show the parent of a compound that is named as a salt.

One assay has as its system recombinant NL-Rluc virus (NL4-3 with Renilla Luciferase gene) in MT-2 cells. In words: Inhibition of HIV replication (NL-Rluc luciferase reporter virus, MT-2 cells). The class given is cell-based, human immunodeficiency virus (HIV). The conditions noted are these: NL43, 120 h, read-out: Activity. A general note: Reporter assays use an easily measured gene product as a stand-in for the process of interest.
For `Cc1nc2cc(-c3ccccc3)nn2c(-c2ccc(C(C)C)cc2)c1C(OC(C)(C)C)C(=O)O` (centres unmarked) [Example 57], the EC50 is > 1 µM.
In the case of `CSc1ccc(-c2c(C(OC(C)(C)C)C(=O)O)c(C)nc3cc(-c4ccccc4)nn23)cc1` (centres unmarked) [Example 58], the EC50 is > 1 µM.
Still for that read-out and setting: next, `Cc1cc(-c2c(C(OC(C)(C)C)C(=O)O)c(C)nc3cc(-c4ccccc4)nn23)ccc1F` (centres unmarked) [Example 59]: > 1 µM; `Cc1cc(F)ccc1-c1c(C(OC(C)(C)C)C(=O)O)c(C)nc2cc(-c3ccccc3)nn12` (centres unmarked) [Example 60]: > 1 µM; `Cc1ccc(-c2c(C(OC(C)(C)C)C(=O)O)c(C)nc3cc(-c4ccccc4)nn23)cc1F` (centres unmarked) [Example 61]: > 1 µM.
The same measure, in the same setting: in the case of `Cc1ccc(F)c(-c2c(C(OC(C)(C)C)C(=O)O)c(C)nc3cc(-c4ccccc4)nn23)c1` (centres unmarked) [Example 62] it was > 1 µM; in that of `COc1ccc(-c2c(C(OC(C)(C)C)C(=O)O)c(C)nc3cc(-c4ccccc4)nn23)c(F)c1` (centres unmarked) [Example 63], > 1 µM.
Still for that read-out and setting: in the case of `Cc1nc2cc(-c3ccccc3)nn2c(-c2cc3ccccc3o2)c1C(OC(C)(C)C)C(=O)O` (centres unmarked) [Example 64] it was > 1 µM.
On to `Cc1nc2cc(-c3ccccc3)nn2c(-c2ccc3c4c(cccc24)CC3)c1C(OC(C)(C)C)C(=O)O` (centres unmarked) [Example 65], for which the EC50 was > 1 µM.
Still for that read-out and setting: in the case of `Cc1nc2cc(-c3ccccc3)nn2c(-c2ccc(C(C)(C)C)cc2)c1C(OC(C)(C)C)C(=O)O` (centres unmarked) [Example 66] it was > 1 µM.
Same read-out and setting: next, `Cc1nc2cc(-c3ccccc3)nn2c(-c2cc3ccccc3s2)c1C(OC(C)(C)C)C(=O)O` (centres unmarked) [Example 67]: > 1 µM.
The same measure, in the same setting: in the case of `Cc1nc2cc(-c3ccccc3)nn2c(-c2csc3ccccc23)c1C(OC(C)(C)C)C(=O)O` (centres unmarked) [Example 68] it was > 1 µM.
Take `Cc1nc2cc(-c3ccccc3)nn2c(-c2cccc3cccnc23)c1C(OC(C)(C)C)C(=O)O` (centres unmarked) [Example 69]: the EC50 was > 1 µM.
Same read-out and setting: in the case of `Cc1nc2cc(-c3ccccc3)nn2c(-c2ccc3[nH]ccc3c2)c1C(OC(C)(C)C)C(=O)O` (centres unmarked) [Example 70] it was > 1 µM; in that of `Cc1nc2cc(-c3ccccc3)nn2c(-c2cccc3ncccc23)c1C(OC(C)(C)C)C(=O)O` (centres unmarked) [Example 71], > 1 µM.
As to `Cc1nc2cc(-c3ccccc3)nn2c(-c2cccc3[nH]ccc23)c1C(OC(C)(C)C)C(=O)O` (centres unmarked) [Example 72], the EC50 is > 1 µM.
On the same count and under the same terms, in the case of `Cc1nc2cc(-c3ccccc3)nn2c(-c2cccc3cnccc23)c1C(OC(C)(C)C)C(=O)O` (centres unmarked) [Example 73] it was > 1 µM.
Same read-out and setting: next, `Cc1nc2cc(-c3ccccc3)nn2c(-c2ccc3nccnc3c2)c1C(OC(C)(C)C)C(=O)O` (centres unmarked) [Example 74]: > 1 µM; `Cc1nc2cc(-c3ccccc3)nn2c(-c2ccc(N(C)C)cc2)c1C(OC(C)(C)C)C(=O)O` (centres unmarked) [Example 75]: > 1 µM.
Same read-out and setting: in the case of `Cc1nc2cc(-c3ccccc3)nn2c(-c2ccc3cn[nH]c3c2)c1C(OC(C)(C)C)C(=O)O` (centres unmarked) [Example 76] it was > 1 µM; in that of `Cc1ccc(-c2c(C(OC(C)(C)C)C(=O)O)c(C)nc3cc(-c4ccccc4)nn23)cn1` (centres unmarked) [Example 77], > 1 µM.
As for `Cc1nc2cc(-c3ccccc3)nn2c(-c2cnc3[nH]ccc3c2)c1C(OC(C)(C)C)C(=O)O` (centres unmarked) [Example 78], the EC50 was > 1 µM.
With `Cc1nc2cc(-c3ccccc3)nn2c(-c2ccc3ccncc3c2)c1C(OC(C)(C)C)C(=O)O` (centres unmarked) [Example 79], the EC50 was > 1 µM.
On the same count and under the same terms, next, `Cc1nc2cc(-c3ccccc3)nn2c(-c2cccc3cn[nH]c23)c1C(OC(C)(C)C)C(=O)O` (centres unmarked) [Example 80]: > 1 µM; `Cc1nc2cc(-c3ccccc3)nn2c(-c2ccc(Cl)cc2Cl)c1C(OC(C)(C)C)C(=O)O` (centres unmarked) [Example 81]: > 1 µM.
On to `Cc1nc2cc(-c3ccccc3)nn2c(-c2ccc(F)c(Cl)c2)c1C(OC(C)(C)C)C(=O)O` (centres unmarked) [Example 82], for which the EC50 is > 1 µM.
On the same count and under the same terms, next, `Cc1nc2cc(-c3ccccc3)nn2c(-c2ccc(F)c(F)c2)c1C(OC(C)(C)C)C(=O)O` (centres unmarked) [Example 83]: > 1 µM; `Cc1nc2cc(-c3ccccc3)nn2c(-c2ccc(Cl)c(Cl)c2)c1C(OC(C)(C)C)C(=O)O` (centres unmarked) [Example 84]: > 1 µM; `Cc1nc2cc(-c3ccccc3)nn2c(-c2cccc(Cl)c2Cl)c1C(OC(C)(C)C)C(=O)O` (centres unmarked) [Example 85]: > 1 µM.
For `Cc1nc2cc(-c3ccccc3)nn2c(-c2ccc(Cl)c(F)c2)c1C(OC(C)(C)C)C(=O)O` (centres unmarked) [Example 86], the EC50 was > 1 µM.
Same read-out and setting: in the case of `Cc1nc2cc(-c3ccccc3)nn2c(-c2ccc(C)c3ccccc23)c1C(OC(C)(C)C)C(=O)O` (centres unmarked) [Example 87] it was > 1 µM; in that of `COc1ccc(-c2c(C(OC(C)(C)C)C(=O)O)c(C)nc3cc(-c4ccccc4)nn23)cc1C` (centres unmarked) [Example 88], > 1 µM; in that of `Cc1nc2cc(-c3ccccc3)nn2c(-c2ccc3c(c2)OCCCO3)c1C(OC(C)(C)C)C(=O)O` (centres unmarked) [Example 89], > 1 µM.
Consider `Cc1nc2cc(-c3ccccc3)nn2c(-c2ccc(F)cc2Cl)c1C(OC(C)(C)C)C(=O)O` (centres unmarked) [Example 90], for which the EC50 was > 1 µM.
Regarding `Cc1ccc(-c2c(C(OC(C)(C)C)C(=O)O)c(C)nc3cc(-c4ccccc4)nn23)c(C)c1` (centres unmarked) [Example 91], the EC50 is > 1 µM.
Still for that read-out and setting: in the case of `COc1ccc(-c2cc3nc(C)c(C(OC(C)(C)C)C(=O)O)c(-c4cc(F)c5c(c4C)CCCO5)n3n2)cc1` (centres unmarked) [Example 92, 2-tert-Butoxy-2-(7-(8-fluoro-5-methylchroman-6-yl)-2-(4-methoxyphenyl)-5-methylpyrazolo[1,5-a]pyrimidin-6-yl)acetic acid, TFA salt] it was 0.1 to 1 µM; in that of `Cc1nc2cc(-c3cccc(OCc4ccccc4)c3)nn2c(-c2cc(F)c3c(c2C)CCCO3)c1C(OC(C)(C)C)C(=O)O` (centres unmarked) [Example 93, 2-(2-(3-(Benzyloxy)phenyl)-7-(8-fluoro-5-methylchroman-6-yl)-5-methylpyrazolo[1,5-a]pyrimidin-6-yl)-2-tert-butoxyacetic acid, TFA salt], < 0.1 µM.
On the same count and under the same terms, in the case of `Cc1nc2cc(-c3cccc(OCc4ccccc4)c3)nn2c(-c2cc(F)c3c(c2C)CCCO3)c1[C@H](OC(C)(C)C)C(=O)O` [Example 94, (2S)-2-(2-(3-(Benzyloxy)phenyl)-7-(8-fluoro-5-methylchroman-6-yl)-5-methyl-pyrazolo[1,5-a]pyrimidin-6-yl)-2-tert-butoxyacetic acid] it was < 0.1 µM; in that of `Cc1nc2cc(-c3ccc(OCc4ccccc4)cc3)nn2c(-c2cc(F)c3c(c2C)CCCO3)c1C(OC(C)(C)C)C(=O)O` (centres unmarked) [Example 95, 2-(2-(4-(Benzyloxy)phenyl)-7-(8-fluoro-5-methylchroman-6-yl)-5-methylpyrazolo[1,5-a]pyrimidin-6-yl)-2-tert-butoxyacetic acid, TFA salt], < 0.1 µM.
Still for that read-out and setting: in the case of `Cc1nc2cc(-c3ccc(Cl)cc3)nn2c(-c2cc(F)c3c(c2C)CCCO3)c1C(OC(C)(C)C)C(=O)O` (centres unmarked) [Example 96, 2-tert-Butoxy-2-(2-(4-chlorophenyl)-7-(8-fluoro-5-methylchroman-6-yl)-5-methylpyrazolo[1,5-a]pyrimidin-6-yl)acetic acid, TFA salt] it was 0.1 to 1 µM; in that of `Cc1nc2cc(-c3cccc(Oc4ccccc4)c3)nn2c(-c2cc(F)c3c(c2C)CCCO3)c1C(OC(C)(C)C)C(=O)O` (centres unmarked) [Example 97, 2-tert-Butoxy-2-(7-(8-fluoro-5-methylchroman-6-yl)-5-methyl-2-(3-phenoxyphenyl)pyrazolo[1,5-a]pyrimidin-6-yl)acetic acid, TFA salt], < 0.1 µM.
With `Cc1ccccc1-c1cc2nc(C)c(C(OC(C)(C)C)C(=O)O)c(-c3cc(F)c4c(c3C)CCCO4)n2n1` (centres unmarked) [Example 98, 2-tert-Butoxy-2-(7-(8-fluoro-5-methylchroman-6-yl)-5-methyl-2-o-tolylpyrazolo[1,5-a]pyrimidin-6-yl)acetic acid, TFA salt], the EC50 was > 1 µM.
The same measure, in the same setting: in the case of `COc1cccc(-c2cc3nc(C)c(C(OC(C)(C)C)C(=O)O)c(-c4cc(F)c5c(c4C)CCCO5)n3n2)c1` (centres unmarked) [Example 99, 2-tert-Butoxy-2-(7-(8-fluoro-5-methylchroman-6-yl)-2-(3-methoxyphenyl)-5-methylpyrazolo[1,5-a]pyrimidin-6-yl)acetic acid] it was 0.1 to 1 µM; in that of `CCc1ccc(-c2cc3nc(C)c(C(OC(C)(C)C)C(=O)O)c(-c4cc(F)c5c(c4C)CCCO5)n3n2)cc1` (centres unmarked) [Example 100, 2-tert-Butoxy-2-(2-(4-ethylphenyl)-7-(8-fluoro-5-methylchroman-6-yl)-5-methylpyrazolo[1,5-a]pyrimidin-6-yl)acetic acid, TFA salt], 0.1 to 1 µM.
Consider `Cc1nc2cc(-c3cccc(OCc4ccc(F)cc4)c3)nn2c(-c2cc(F)c3c(c2C)CCCO3)c1C(OC(C)(C)C)C(=O)O` (centres unmarked) [Example 101, 2-tert-Butoxy-2-(7-(8-fluoro-5-methylchroman-6-yl)-2-(3-(4-fluorobenzyloxy)phenyl)-5-methylpyrazolo[1,5-a]pyrimidin-6-yl)acetic acid, TFA salt], for which the EC50 was < 0.1 µM.
Still for that read-out and setting: next, `Cc1nc2cc(-c3cccc(OCc4ccccc4Cl)c3)nn2c(-c2cc(F)c3c(c2C)CCCO3)c1C(OC(C)(C)C)C(=O)O` (centres unmarked) [Example 102, 2-tert-Butoxy-2-(2-(3-(2-chlorobenzyloxy)phenyl)-7-(8-fluoro-5-methylchroman-6-yl)-5-methylpyrazolo[1,5-a]pyrimidin-6-yl)acetic acid, TFA salt]: < 0.1 µM.
As for `COc1ccc(COc2cccc(-c3cc4nc(C)c(C(OC(C)(C)C)C(=O)O)c(-c5cc(F)c6c(c5C)CCCO6)n4n3)c2)cc1` (centres unmarked) [Example 103, 2-tert-Butoxy-2-(7-(8-fluoro-5-methylchroman-6-yl)-2-(3-(4-methoxybenzyloxy)phenyl)-5-methylpyrazolo[1,5-a]pyrimidin-6-yl)acetic acid, TFA salt], the EC50 was < 0.1 µM.

Staying with this assay, now noted: NL43, 120 h, read-out: EC50 μM.
As to `Cc1nc2cc(-c3ccccc3)nn2c(-c2ccc(C(C)C)cc2)c1C(OC(C)(C)C)C(=O)O` (centres unmarked) [Example 57], the EC50 was determined as 1.7 µM.
On the same count and under the same terms, next, `CSc1ccc(-c2c(C(OC(C)(C)C)C(=O)O)c(C)nc3cc(-c4ccccc4)nn23)cc1` (centres unmarked) [Example 58]: 3.1 µM; `Cc1ccc(F)c(-c2c(C(OC(C)(C)C)C(=O)O)c(C)nc3cc(-c4ccccc4)nn23)c1` (centres unmarked) [Example 62]: 5 µM; `Cc1nc2cc(-c3cccc(OCc4ccccc4)c3)nn2c(-c2cc(F)c3c(c2C)CCCO3)c1C(OC(C)(C)C)C(=O)O` (centres unmarked) [Example 93, 2-(2-(3-(Benzyloxy)phenyl)-7-(8-fluoro-5-methylchroman-6-yl)-5-methylpyrazolo[1,5-a]pyrimidin-6-yl)-2-tert-butoxyacetic acid, TFA salt]: 0.1 µM.
Still for that read-out and setting: in the case of `Cc1nc2cc(-c3cccc(Oc4ccccc4)c3)nn2c(-c2cc(F)c3c(c2C)CCCO3)c1C(OC(C)(C)C)C(=O)O` (centres unmarked) [Example 97, 2-tert-Butoxy-2-(7-(8-fluoro-5-methylchroman-6-yl)-5-methyl-2-(3-phenoxyphenyl)pyrazolo[1,5-a]pyrimidin-6-yl)acetic acid, TFA salt] it was 0.06 µM.
As for `COc1cccc(-c2cc3nc(C)c(C(OC(C)(C)C)C(=O)O)c(-c4cc(F)c5c(c4C)CCCO5)n3n2)c1` (centres unmarked) [Example 99, 2-tert-Butoxy-2-(7-(8-fluoro-5-methylchroman-6-yl)-2-(3-methoxyphenyl)-5-methylpyrazolo[1,5-a]pyrimidin-6-yl)acetic acid], the EC50 was 0.35 µM.
